The target of experiment [1] is Serine/threonine-protein kinase pim-2 (Homo sapiens, UniProt Q9P1W9). The experiment in a line: Selectivity interaction (Kinase panel (Z-LYTE Assay)) EUB0001632a PIM2. The settings on record: at 10 µM.
The target of experiment [2] is T1, Mitogen-activated protein kinase 12 (Homo sapiens) (UniProt P53778).
T1 sequence (whole entry): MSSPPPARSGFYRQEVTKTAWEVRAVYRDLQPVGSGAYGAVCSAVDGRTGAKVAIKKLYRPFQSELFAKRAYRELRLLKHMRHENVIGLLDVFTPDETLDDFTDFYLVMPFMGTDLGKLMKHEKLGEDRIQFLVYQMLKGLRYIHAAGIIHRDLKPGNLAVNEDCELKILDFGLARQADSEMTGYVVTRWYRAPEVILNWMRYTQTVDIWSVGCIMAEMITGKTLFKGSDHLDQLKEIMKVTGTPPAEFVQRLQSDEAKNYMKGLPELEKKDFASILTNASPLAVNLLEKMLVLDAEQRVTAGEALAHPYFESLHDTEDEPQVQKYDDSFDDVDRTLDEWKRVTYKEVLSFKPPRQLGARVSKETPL
In words: Selectivity interaction (KinomeScan (DiscoverX)) EUB0000695a MAPK12. The settings on record: at 100 nM.

In experiment [3] the target is Tyrosine-protein kinase ABL2 (Homo sapiens, UniProt P42684). The experiment in a line: Selectivity interaction (ActivX KiNativ screen (kinase selectivity in THP-1 cell lysates)) EUB0000639a ABL2. The class given is subcellular. The settings on record: lysate.
The target in experiment [4] is Serine/threonine-protein kinase SMG1 (Homo sapiens) (UniProt Q96Q15). In words: Selectivity interaction (ActivX KiNativ screen (kinase selectivity in THP-1 cell lysates)) EUB0000639a SMG1. The class given is subcellular. The note with it: lysate, at 1 µM.
Experiment [5] concerns the target T2, Serine/threonine-protein kinase TAO3 (Homo sapiens) (UniProt Q9H2K8).
T2 sequence (whole entry): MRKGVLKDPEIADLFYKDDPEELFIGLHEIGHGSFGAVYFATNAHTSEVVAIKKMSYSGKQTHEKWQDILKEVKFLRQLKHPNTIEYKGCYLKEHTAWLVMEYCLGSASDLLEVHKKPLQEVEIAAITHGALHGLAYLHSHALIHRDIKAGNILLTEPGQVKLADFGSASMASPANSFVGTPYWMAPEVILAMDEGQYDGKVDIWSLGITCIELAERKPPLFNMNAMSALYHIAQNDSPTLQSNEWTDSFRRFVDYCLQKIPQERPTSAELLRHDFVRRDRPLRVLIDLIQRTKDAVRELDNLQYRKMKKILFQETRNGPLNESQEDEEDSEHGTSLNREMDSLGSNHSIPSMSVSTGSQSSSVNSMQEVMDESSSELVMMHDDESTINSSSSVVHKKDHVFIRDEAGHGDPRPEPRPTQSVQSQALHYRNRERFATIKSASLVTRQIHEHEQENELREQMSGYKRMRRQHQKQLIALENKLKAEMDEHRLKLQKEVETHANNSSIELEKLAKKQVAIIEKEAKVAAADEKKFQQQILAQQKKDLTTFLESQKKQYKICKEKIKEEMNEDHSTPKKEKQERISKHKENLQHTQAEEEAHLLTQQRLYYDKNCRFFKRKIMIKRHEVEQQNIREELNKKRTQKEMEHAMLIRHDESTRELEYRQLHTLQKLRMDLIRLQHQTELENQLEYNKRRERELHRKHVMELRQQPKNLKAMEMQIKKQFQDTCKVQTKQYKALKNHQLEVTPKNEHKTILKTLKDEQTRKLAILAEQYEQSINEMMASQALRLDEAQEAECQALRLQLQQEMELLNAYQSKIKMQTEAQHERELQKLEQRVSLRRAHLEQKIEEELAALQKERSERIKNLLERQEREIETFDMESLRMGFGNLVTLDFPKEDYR
The experiment in a line: Selectivity interaction (ActivX KiNativ screen (kinase selectivity in THP-1 cell lysates)) EUB0000639a TAOK3. It counts as subcellular. The settings on record: lysate.

Experiment [6] has as its target T3, Mitogen-activated protein kinase 13 (Homo sapiens) (UniProt O15264).
T3 sequence (whole entry): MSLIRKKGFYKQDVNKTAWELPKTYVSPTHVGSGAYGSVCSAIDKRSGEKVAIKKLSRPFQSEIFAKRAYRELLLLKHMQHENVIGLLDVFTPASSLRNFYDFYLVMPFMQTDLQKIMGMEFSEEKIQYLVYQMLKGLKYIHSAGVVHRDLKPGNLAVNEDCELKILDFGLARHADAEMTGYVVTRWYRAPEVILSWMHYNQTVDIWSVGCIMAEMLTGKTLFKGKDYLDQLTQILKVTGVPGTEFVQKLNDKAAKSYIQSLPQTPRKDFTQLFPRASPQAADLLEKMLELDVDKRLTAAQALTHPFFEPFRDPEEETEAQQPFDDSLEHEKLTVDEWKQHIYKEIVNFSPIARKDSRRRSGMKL
In words: Selectivity interaction (Kinase panel (DSF assay)) EUB0001559a MAPK13.

The target of experiment [7] is Protein kinase C beta type (Homo sapiens, UniProt P05771). In words: Selectivity interaction (ProQinase) EUB0000171b PRKCB. The settings on record: at 5 µM.
In experiment [8] the target is T4, Serine/threonine-protein kinase Sgk1 (Homo sapiens) (UniProt O00141).
T4 sequence (whole entry): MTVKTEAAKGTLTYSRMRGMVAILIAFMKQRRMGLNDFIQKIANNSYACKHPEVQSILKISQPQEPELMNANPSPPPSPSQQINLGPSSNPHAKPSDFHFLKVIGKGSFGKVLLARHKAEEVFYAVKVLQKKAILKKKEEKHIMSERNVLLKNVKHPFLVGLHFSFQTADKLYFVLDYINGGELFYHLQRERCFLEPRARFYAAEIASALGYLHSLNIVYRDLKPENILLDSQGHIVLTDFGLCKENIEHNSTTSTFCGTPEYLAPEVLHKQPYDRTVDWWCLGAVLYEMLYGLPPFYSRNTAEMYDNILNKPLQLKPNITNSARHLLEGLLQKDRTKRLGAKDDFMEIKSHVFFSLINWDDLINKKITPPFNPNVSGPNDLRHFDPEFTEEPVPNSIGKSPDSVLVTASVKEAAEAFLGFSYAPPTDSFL
In words: Selectivity interaction (KinomeScan (DiscoverX)) EUB0001049a SGK1. The settings on record: at 1 µM.

The subject of experiment [9] is Mast/stem cell growth factor receptor Kit (Homo sapiens), P10721 [V559D]. In words: (§1) Selectivity interaction (KinomeScan (DiscoverX)) EUB0000092b KIT. The settings on record: at 10 µM.
For experiment [10], the system named is Mast/stem cell growth factor receptor Kit (Homo sapiens), P10721 [L576P]. Described as §1. The note with it: at 10 µM.
Experiment [11] deals with Mitogen-activated protein kinase kinase kinase 10 (Homo sapiens) (UniProt Q02779). The experiment in a line: Selectivity interaction (KinomeScan (DiscoverX)) EUB0001079a MAP3K10. The note with it: at 1 µM.
Experiment [12] concerns the target MAP/microtubule affinity-regulating kinase 3 (Homo sapiens) (UniProt P27448). In words: Selectivity interaction (KinomeScan (DiscoverX)) EUB0000229b MARK3. The note with it: at 10 µM.

SMILES strings stand for the structures.

Sequence of Tyrosine-protein kinase ABL2 (P42684 whole entry): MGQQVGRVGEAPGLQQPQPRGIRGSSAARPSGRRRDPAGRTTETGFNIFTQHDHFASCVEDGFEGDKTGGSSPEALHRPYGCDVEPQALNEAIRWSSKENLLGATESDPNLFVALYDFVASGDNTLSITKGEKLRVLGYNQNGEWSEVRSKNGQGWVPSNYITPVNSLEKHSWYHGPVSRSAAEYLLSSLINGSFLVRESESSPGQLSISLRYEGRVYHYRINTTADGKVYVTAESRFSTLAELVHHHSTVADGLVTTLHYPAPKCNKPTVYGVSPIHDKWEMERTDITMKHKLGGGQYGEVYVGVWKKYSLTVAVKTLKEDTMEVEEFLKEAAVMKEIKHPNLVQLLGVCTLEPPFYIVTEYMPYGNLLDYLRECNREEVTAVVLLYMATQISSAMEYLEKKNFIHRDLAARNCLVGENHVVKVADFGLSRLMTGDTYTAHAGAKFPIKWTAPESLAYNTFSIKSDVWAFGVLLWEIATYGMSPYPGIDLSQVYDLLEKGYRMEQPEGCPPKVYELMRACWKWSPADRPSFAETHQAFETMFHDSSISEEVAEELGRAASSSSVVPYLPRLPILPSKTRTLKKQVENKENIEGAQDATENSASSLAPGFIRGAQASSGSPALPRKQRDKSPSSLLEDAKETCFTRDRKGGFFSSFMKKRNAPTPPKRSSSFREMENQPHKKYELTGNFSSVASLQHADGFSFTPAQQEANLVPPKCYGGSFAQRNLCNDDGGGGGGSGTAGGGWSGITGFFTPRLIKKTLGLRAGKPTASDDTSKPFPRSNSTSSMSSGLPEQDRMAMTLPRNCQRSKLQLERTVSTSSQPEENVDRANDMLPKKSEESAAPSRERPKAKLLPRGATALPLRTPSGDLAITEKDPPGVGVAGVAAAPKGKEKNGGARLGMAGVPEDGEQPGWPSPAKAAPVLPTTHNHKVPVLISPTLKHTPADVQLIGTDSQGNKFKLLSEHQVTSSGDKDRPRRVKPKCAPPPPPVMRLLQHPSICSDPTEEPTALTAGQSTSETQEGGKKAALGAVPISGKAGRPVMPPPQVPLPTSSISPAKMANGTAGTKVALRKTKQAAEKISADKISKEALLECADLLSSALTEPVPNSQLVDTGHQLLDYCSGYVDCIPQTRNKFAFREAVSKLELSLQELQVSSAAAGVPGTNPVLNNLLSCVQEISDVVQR
Sequence of Serine/threonine-protein kinase SMG1 (Homo sapiens) (Q96Q15 whole entry): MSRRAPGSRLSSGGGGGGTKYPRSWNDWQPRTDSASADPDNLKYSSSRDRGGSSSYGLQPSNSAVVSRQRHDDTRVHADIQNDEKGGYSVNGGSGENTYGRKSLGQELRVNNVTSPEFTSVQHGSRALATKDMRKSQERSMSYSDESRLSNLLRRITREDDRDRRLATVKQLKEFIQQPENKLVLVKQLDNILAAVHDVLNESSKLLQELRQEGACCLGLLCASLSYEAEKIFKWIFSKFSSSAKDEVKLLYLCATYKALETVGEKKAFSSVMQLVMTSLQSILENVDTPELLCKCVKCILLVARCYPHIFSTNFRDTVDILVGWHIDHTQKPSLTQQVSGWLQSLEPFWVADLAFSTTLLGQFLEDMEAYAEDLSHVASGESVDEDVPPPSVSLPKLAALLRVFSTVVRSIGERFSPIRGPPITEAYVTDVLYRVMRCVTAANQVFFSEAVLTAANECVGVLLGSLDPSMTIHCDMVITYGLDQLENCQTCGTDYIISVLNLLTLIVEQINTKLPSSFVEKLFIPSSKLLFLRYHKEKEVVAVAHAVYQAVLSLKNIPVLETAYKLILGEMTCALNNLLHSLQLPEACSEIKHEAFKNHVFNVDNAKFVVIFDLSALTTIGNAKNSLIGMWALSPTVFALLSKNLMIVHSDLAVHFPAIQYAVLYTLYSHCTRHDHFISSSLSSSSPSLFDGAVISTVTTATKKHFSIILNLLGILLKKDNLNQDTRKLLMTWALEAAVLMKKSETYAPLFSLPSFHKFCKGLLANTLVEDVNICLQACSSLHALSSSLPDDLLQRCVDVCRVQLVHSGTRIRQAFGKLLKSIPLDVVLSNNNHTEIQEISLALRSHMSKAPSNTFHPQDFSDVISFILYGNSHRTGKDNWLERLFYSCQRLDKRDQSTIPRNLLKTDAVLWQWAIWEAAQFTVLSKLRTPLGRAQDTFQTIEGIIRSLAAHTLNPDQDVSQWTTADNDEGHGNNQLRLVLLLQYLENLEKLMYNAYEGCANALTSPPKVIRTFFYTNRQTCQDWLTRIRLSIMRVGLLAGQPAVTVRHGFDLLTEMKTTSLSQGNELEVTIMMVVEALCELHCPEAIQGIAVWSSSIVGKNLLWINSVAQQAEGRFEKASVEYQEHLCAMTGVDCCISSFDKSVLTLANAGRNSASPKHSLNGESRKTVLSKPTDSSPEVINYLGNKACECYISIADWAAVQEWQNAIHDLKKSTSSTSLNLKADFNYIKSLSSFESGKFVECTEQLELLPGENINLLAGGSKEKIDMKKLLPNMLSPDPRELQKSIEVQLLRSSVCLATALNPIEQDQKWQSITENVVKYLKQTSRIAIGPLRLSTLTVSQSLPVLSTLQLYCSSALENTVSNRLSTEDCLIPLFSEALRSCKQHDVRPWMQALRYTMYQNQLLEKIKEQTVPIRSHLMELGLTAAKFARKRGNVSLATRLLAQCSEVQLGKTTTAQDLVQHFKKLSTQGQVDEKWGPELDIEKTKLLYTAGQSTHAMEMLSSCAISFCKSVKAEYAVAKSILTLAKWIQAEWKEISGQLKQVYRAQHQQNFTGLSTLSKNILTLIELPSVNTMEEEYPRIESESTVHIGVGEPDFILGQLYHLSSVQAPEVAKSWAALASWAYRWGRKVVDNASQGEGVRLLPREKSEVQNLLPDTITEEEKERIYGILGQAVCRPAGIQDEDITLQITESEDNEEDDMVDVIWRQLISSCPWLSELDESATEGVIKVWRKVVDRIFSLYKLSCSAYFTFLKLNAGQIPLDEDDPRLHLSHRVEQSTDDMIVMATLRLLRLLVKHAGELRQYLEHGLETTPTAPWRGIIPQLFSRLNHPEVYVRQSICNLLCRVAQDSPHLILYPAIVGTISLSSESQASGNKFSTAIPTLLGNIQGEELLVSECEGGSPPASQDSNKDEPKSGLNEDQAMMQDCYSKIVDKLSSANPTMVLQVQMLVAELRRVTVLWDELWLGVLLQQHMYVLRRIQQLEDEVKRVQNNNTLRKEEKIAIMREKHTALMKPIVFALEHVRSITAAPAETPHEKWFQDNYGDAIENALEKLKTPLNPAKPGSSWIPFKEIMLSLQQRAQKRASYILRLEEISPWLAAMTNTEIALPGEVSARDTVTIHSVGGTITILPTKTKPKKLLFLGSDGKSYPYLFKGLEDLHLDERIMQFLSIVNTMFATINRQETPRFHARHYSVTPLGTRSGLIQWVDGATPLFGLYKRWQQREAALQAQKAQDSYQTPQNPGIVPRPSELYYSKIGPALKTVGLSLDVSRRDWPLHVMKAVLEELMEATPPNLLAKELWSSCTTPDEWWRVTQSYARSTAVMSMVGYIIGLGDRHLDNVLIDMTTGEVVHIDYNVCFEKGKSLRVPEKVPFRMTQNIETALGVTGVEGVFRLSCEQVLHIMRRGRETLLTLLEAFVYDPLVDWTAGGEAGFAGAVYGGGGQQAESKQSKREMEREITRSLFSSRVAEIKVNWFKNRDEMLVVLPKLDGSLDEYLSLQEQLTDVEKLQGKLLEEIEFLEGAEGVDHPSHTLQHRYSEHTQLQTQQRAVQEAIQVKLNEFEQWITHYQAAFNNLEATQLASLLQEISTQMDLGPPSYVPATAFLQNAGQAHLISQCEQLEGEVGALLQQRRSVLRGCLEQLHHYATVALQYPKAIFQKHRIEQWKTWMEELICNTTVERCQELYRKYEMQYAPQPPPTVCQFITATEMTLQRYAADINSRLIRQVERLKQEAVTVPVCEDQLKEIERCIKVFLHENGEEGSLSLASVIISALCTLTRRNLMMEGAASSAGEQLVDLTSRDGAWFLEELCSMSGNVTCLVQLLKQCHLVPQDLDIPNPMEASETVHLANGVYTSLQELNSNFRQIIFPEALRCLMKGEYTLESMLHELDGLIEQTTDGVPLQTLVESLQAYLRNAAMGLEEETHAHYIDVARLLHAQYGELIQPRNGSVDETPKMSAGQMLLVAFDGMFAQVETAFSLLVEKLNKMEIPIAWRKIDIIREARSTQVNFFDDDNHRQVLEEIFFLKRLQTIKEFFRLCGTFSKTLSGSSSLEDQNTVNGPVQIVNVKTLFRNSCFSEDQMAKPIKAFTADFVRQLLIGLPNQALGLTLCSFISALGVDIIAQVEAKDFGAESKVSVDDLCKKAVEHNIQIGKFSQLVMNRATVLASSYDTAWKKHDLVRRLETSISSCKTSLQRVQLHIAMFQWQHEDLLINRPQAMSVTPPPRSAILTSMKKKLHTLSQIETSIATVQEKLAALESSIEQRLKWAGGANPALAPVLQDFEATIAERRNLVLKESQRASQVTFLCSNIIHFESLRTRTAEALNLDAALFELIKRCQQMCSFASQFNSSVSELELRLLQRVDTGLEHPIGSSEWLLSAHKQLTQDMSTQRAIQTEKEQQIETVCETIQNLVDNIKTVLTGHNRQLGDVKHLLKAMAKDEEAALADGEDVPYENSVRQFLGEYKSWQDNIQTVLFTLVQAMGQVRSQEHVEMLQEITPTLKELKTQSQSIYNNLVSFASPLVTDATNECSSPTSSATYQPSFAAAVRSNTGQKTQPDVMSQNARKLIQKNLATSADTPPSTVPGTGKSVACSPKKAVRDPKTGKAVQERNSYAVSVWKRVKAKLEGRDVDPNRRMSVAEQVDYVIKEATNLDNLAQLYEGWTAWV
Sequence of Serine/threonine-protein kinase pim-2 (Q9P1W9 whole entry, looked up): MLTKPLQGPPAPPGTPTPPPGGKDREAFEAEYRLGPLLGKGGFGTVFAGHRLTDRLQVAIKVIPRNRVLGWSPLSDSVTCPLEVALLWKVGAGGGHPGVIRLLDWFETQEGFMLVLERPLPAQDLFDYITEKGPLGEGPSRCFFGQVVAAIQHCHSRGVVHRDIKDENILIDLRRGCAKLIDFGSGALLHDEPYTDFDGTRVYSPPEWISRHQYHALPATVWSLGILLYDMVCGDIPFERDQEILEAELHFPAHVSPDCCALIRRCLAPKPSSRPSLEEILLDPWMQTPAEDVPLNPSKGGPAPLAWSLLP

With `Cn1cc(-n2cnc3c(NCc4nc5cc(Cl)c(Cl)cc5[nH]4)nc(N4CCOCC4)nc32)cn1`, the % of control in [1] turned out to be 0.824%.
In experiment [2], `Cc1cc(F)c(C(=O)Nc2cccc(-c3nncn3C(C)C)n2)cc1-n1cnc(C2CC2)c1` displayed a % of control of 100%.
Take `CC[C@@H]1[C@H](F)C(=O)N[C@@H]1COc1nccc2cc(C(N)=O)c(OC)cc12` [ZIMLOVISERTIB]: the % of inhibition in experiment [3] (at 0.01 µM) is 52%; in experiment [3] (at 0.04 µM), -16%; in [3] (at 0.2 µM) it was -25.4%; in [3] (at 1 µM), -5.3%; in [3] (at 5 µM), -19.6%; in experiment [4], 4.9%. Besides, the % of inhibition in [5] (at 0.01 µM) is 6.6%; in [5] (at 0.04 µM), -1.6%; in experiment [5] (at 0.2 µM), 6.9%; in [5] (at 1 µM), 12.9%; in experiment [5] (at 5 µM), 41.7%.
Take `CN(C(=O)c1cnn2cccnc12)c1cc2c(cc1N1CCOCC1)C(=O)N(C[C@@H](F)C(C)(C)O)C2`: the dTM in experiment [6] stood at 1.1 K.
For the molecule `C=CC(=O)Nc1cccc(C(=O)Nc2ccc(Nc3cc(-c4[nH]c(SC)nc4C)ccn3)cc2)c1`, the % of control in experiment [7] amounted to 81%.
On to `COc1cc(Nc2nc(C)cc(-c3cnn4nc(OC)ccc34)n2)cc(C(F)(F)F)c1`, for which, in experiment [8], the % of control worked out at 94%.
Consider `CCC(=O)N1CCN(c2ccc(-n3c(=O)ccc4cnc5ccc(-c6cnc7ccccc7c6)cc5c43)cc2C(F)(F)F)CC1`, for which the % of control in experiment [9] was found to be 50%; in [10] it was 48%.
Regarding `Nc1cnc(N2CCc3cc(S(=O)(=O)Nc4c(F)cc(Cl)cc4F)cc(N4CCCC4=O)c32)nc1` [TP-020n], the % of control in experiment [11] was determined as 75%.
For `COc1cc(N(C)c2ccnc3ccc(C(F)(F)F)cc23)cc(OC)c1OC`, in [12], the % binding came to 100%.

The values are drawn from ChEMBL document CHEMBL5465560, “Selectivity Literature for EUbOPEN Chemogenomic Library” (2024).
